Entries after “also recorded” stand apart in the source; their conditions may differ.
Experiments:
[1] = Stability / hygroscopicity at ambient room temperature and humidity; type: physicochemical; settings: for stability at standard room temperature and humidity (ambient conditions): Preparation 3 after about 5 hours standing, TGA
Method: The partially dehydrated material was allowed to stand for about 5 hours.

[2] = cited from earlier work
[3] = Solubility measured visually; settings: relative to crystalline lisinopril dihydrate (Zestril)
[4] = physchem

## NCCCC[C@H](N[C@@H](CCc1ccccc1)C(=O)O)C(=O)N1CCC[C@H]1C(=O)O.O [Preparation 3]
[1]
  stability at standard room temperature and humidity (ambient conditions): not a stable monohydrate
[1]; crystals returned to room temperature after heating, evolved water reabsorbed from atmosphere
  hygroscopicity: strongly hygroscopic

## NCCCC[C@H](N[C@@H](CCc1ccccc1)C(=O)O)C(=O)N1CCC[C@H]1C(=O)O [lisinopril]
[2]; following oral administration
  time to peak serum concentrations: ≤ 7 h
[2]; multiple dosing
  effective half-life of accumulation: about 12.6 hours

## NCCCC[C@H](N[C@@H](CCc1ccccc1)C(=O)O)C(=O)N1CCC[C@H]1C(=O)O.O [monohydrate lisinopril form 1]
[1]; listed as form 1
  stability at standard room temperature and humidity (ambient conditions): stable

## NCCCC[C@H](N[C@@H](CCc1ccccc1)C(=O)O)C(=O)N1CCC[C@H]1C(=O)O [monohydrate lisinopril form 2, 1-(N^2-[(S)-1-carboxy-3-phenylpropyl]-L-lysyl)-L-proline]
[1]
  stability at standard room temperature and humidity (ambient conditions): stable
[3]
  solubility compared with lisinopril dihydrate: far greater solubility; also recorded: much more soluble; also recorded: substantially more soluble
[4]
  solubility: 400 to 450 mg/mL
